ChEMBL document CHEMBL1150996, “Syntheses and exploration of new biological activities in ethyl 6/7-substituted and 6, 7-disubstituted quinolin-4-one-3-carboxylates” (1996)
Converted amounts (≈) assume the structure as drawn. The source made the active and inactive calls. No cut-off for these calls is given here.

Experiments:
Trichophyton benhamiae = assay: In vitro minimum inhibitory concentration against Trichophyton mentagrophytes; assay type: functional, Arthroderma benhamiae
Plasmodium yoelii [1] = assay: (§1) Compound was evaluated for uM; set-up: concentration or dose not given beside the values; conditions: concentration not given here
Plasmodium yoelii [2] = assay: (§2) Compound was evaluated for uM concentration.; conditions: concentration not given here
Plasmodium yoelii [3] = assay: as §1; conditions: concentration not given here
Plasmodium yoelii [4] = assay: Compound was evaluated for uM: No effect
Plasmodium yoelii [5] = assay: Compound was evaluated for anti-heme polymerase activity in intact erythrocytes infected with drug resistant Plasmodium yoelii at 1.0 uM concentration.; assay type: cell-based
Plasmodium yoelii [6] = assay: as §2; conditions: concentration not given here; remark: listed apart in the source

MIC (Trichophyton benhamiae) [µg/mL]	inhibition (Plasmodium yoelii [1]) [%]	inhibition (Plasmodium yoelii [3]) [%]	inhibition (Plasmodium yoelii [4])	Compound	inhibition (Plasmodium yoelii [2]) [%]	inhibition (Plasmodium yoelii [5]) [%]	inhibition (Plasmodium yoelii [6]) [%]
50 (≈ 160 µM)	69			CCOC(=O)c1cnc2cc(C3=NNC(=O)CC3)ccc2c1O			
50 (≈ 104 µM)	82			CCOC(=O)c1cnc2ccc(C3(CCC(=O)CCc4ccoc4)CCC(=O)NC3=O)cc2c1O (configuration not stated)			
50 (≈ 156 µM)		46		CCN(CC)CCCC(C)Nc1ccnc2cc(Cl)ccc12 (configuration not stated) [CHLOROQUINE]	47		
50 (≈ 190 µM)			inactive	CCOC(=O)c1cnc2cc(CO)c(O)cc2c1O			
50 (≈ 106 µM)	88			CCOC(=O)c1cnc2ccc(C3(CCC(=O)NCCC(C)C)CCC(=O)NC3=O)cc2c1O (configuration not stated)			
50 (≈ 110 µM)	85			CCCCNC(=O)CCC1(c2ccc3ncc(C(=O)OCC)c(O)c3c2)CCC(=O)NC1=O (configuration not stated)			
50 (≈ 91.1 µM)	86			CCOC(=O)c1cnc2ccc(C3(CCC(=O)CCc4ccc(OC)c(OC)c4)CCC(=O)NC3=O)cc2c1O (configuration not stated)			
50 (≈ 166 µM)	46			CCOC(=O)c1cnc2cc(C3CCC(=O)O3)ccc2c1O (configuration not stated)			

Compound	MIC (Trichophyton benhamiae) [µg/mL]	inhibition (Plasmodium yoelii [1]) [%]	inhibition (Plasmodium yoelii [3]) [%]	inhibition (Plasmodium yoelii [4])	inhibition (Plasmodium yoelii [2]) [%]	inhibition (Plasmodium yoelii [5]) [%]	inhibition (Plasmodium yoelii [6]) [%]
CCOC(=O)c1cnc2ccc(C3(CCC(=O)OC)CCC(=O)NC3=O)cc2c1O (configuration not stated)	50 (≈ 121 µM)	66			40	62	11
CCOC(=O)c1cnc2ccc(C3(CCC(=O)NC(C)CC)CCC(=O)NC3=O)cc2c1O (configuration not stated)	50 (≈ 110 µM)	71			42	68	17
